Columns and labels:
Test in all cases: relative viability (nuclei count vs DMSO), 5 days (fraction); higher = more cells survive
[1] = compound: CC1(COc2ccc3c(c2)ncn3-c2ccc3cccc(N4CCC(N)CC4)c3n2)COC1 [Crenolanib]
Procedure, shortened: (§1)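 Lung cancer cell lines in 1536-well plates were exposed by pinning to five library-drug doses (not always all listed) √10 apart, following an overnight hold at 37 °C. MetaXpress counted Hoechst-stained nuclei from 4× images taken after 5 days without medium change. Viability is the median ratio of treated-well to vehicle-well nuclei across plates. Plates required control CV below 25% and at least one doubling.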

[2] = compound: O=C1NC(=O)[C@@H](c2cn3c4c(cccc24)CCC3)[C@@H]1c1c[nH]c2ccccc12 [Tivantinib]
Procedure, shortened: as §1

[3] = compound: CC1(COc2ccc3c(c2)ncn3-c2ccc3cccc(N4CCC(N)CC4)c3n2)COC1 [Crenolanib] + CC1(C)CCC(c2ccc(Cl)cc2)=C(CN2CCN(c3ccc(C(=O)NS(=O)(=O)c4ccc(N[C@H](CCN5CCOCC5)CSc5ccccc5)c(S(=O)(=O)C(F)(F)F)c4)cc3)CC2)C1 [Navitoclax] (partner 0.5 µM)
Procedure, shortened: (§2)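 The day after seeding in 1536-well plates, lung cancer cell lines were treated by pin tool with a single drug, or with a fixed anchor-drug dose together with five library-drug doses (not always all listed) in √10 steps. After 5 days, a combined fix-and-stain solution (final 0.05% Triton X-100, 1% formaldehyde, 1 ug/ml Hoechst) was added. Nuclei counted on 4× images gave relative viability as treated counts over vehicle counts, reported as the median of duplicate plates.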

[4] = compound: CC1(COc2ccc3c(c2)ncn3-c2ccc3cccc(N4CCC(N)CC4)c3n2)COC1 [Crenolanib] + COc1cc2c(Oc3ccc(NC(=O)C4(C(=O)Nc5ccc(F)cc5)CC4)cc3F)ccnc2cc1OCCCN1CCOCC1 [Foretinib] (partner 0.25 µM)
Procedure, shortened: as §2

Cell Line	relative viability ([1]; 0.01 µM)	relative viability ([1]; 0.03162 µM)	relative viability ([1]; 0.1 µM)	relative viability ([1]; 0.3162 µM)	relative viability ([1]; 1 µM)	relative viability ([2]; 0.01 µM)	relative viability ([2]; 0.03162 µM)	relative viability ([2]; 0.1 µM)	relative viability ([2]; 0.3162 µM)	relative viability ([3]; first compound 0.01 µM)	relative viability ([3]; first compound 0.03162 µM)	relative viability ([3]; first compound 0.1 µM)	relative viability ([3]; first compound 0.3162 µM)	relative viability ([3]; first compound 1 µM)	relative viability ([4]; first compound 0.01 µM)	relative viability ([4]; first compound 0.03162 µM)	relative viability ([4]; first compound 0.1 µM)	relative viability ([4]; first compound 0.3162 µM)	relative viability ([4]; first compound 1 µM)
NCI-H1651	0.952	0.928	0.958	0.989	0.932	1.02	0.938	0.874	0.971	1.1	1.07	0.935	1.23	1.03	0.884	0.967	0.883	0.94	0.787
NCI-H1395	0.983	0.778	0.975	0.795	0.853	1.07	1.08	0.907	0.924	1.13	1.26	1.07	1.18	1.15	1.03	0.97	1.01	1.07	0.936
EPLC-272H	0.905	0.893	0.838	1.04	1.11	1.05	0.88	0.851	0.455	–	1.25	0.988	1.17	1.08	0.792	0.588	0.643	0.64	0.797
LXF-289	0.964	0.996	0.97	1.01	0.976	1.03	1.03	0.977	1.01	0.92	0.977	0.873	1	0.929	1.02	0.971	0.942	0.989	0.977
NCI-H1437	0.983	1	0.977	1.04	1.02	0.993	0.984	0.908	0.989	1.1	1.11	1.15	1.18	1.11	1.28	1.28	1.31	1.31	1.14
HCC-827	1.08	1.02	1.03	1.04	0.958	1.06	1.07	1.04	0.765	0.976	1.03	0.978	1.07	0.995	1.08	1.04	1.04	1.1	0.998
NCI-H1650	0.927	0.955	1.03	0.867	0.876	0.956	0.813	0.829	0.849	1.22	1.13	1.14	1.6	1.34	1.34	1.27	1.2	1.23	0.945
HCC-366	1.03	1.03	0.958	1.05	0.998	1.02	1.03	0.994	0.955	1.03	1.12	1.03	1.23	1.01	0.918	0.954	0.956	0.942	0.938
EKVX	1.06	0.871	0.916	1.05	1	0.953	0.957	0.936	0.371	1.01	0.898	0.881	1.11	0.899	1	0.71	0.802	0.796	0.757
NCI-H2126	1.03	1.05	0.937	0.987	0.928	0.959	0.945	0.989	0.869	0.891	0.888	0.831	0.916	0.934	1.24	1.37	0.985	1.41	1.23
LK-2	0.981	1.04	0.979	1.14	0.898	1.04	–	0.892	0.89	0.909	1.07	0.93	1.05	0.933	1.27	1.66	1.12	1.35	1.36
COR-L23	1.04	1.02	0.952	1.04	0.915	1.06	0.933	0.942	1.11	1.06	1.07	0.922	1.12	1.04	1	0.958	0.925	0.991	0.927
PC-14	1.13	0.92	0.997	1.02	0.821	0.946	0.985	0.99	0.773	1.08	1.01	0.986	1.11	0.988	1.01	0.904	0.952	1.06	0.933
A549	1.05	0.977	0.959	1.12	0.949	0.993	0.979	0.793	0.992	1.2	1.13	1.18	1.53	1.02	0.996	0.894	0.891	1.04	1.01
A-427	0.953	0.969	0.976	0.948	0.927	0.959	0.978	0.976	1.02	0.995	0.912	0.999	1.02	0.966	1.05	0.969	1.14	1.1	1.09
NCI-H1915	0.969	1	1.02	1.01	0.779	0.986	0.912	0.977	1.06	0.792	0.769	0.786	0.828	0.831	1.09	1.09	1.04	1.1	0.992

— the supplement of paper PMC10307832
